From ChEMBL document CHEMBL2202954, “The effect of PLC-γ2 inhibitors on the growth of human tumour cells” (2012)

Tests used:
Assay type in all cases: functional
[1] = tested on: HCC 2998; experiment: Cytotoxicity against human HCC2998 cells assessed as cellular growth at 10 uM by SRB assay
[2] = tested on: SK-MEL-2; experiment: Cytotoxicity against human SK-MEL-2 cells assessed as cellular growth at 10 uM by SRB assay
[3] = tested on: SW-620; experiment: Cytotoxicity against human SW620 cells assessed as cellular growth at 10 uM by SRB assay
[4] = tested on: IGROV-1; experiment: Cytotoxicity against human IGROV1 cells assessed as cellular growth at 10 uM by SRB assay
[5] = tested on: UACC-257; experiment: Cytotoxicity against human UACC257 cells assessed as cellular growth at 10 uM by SRB assay
[6] = tested on: CCRF-CEM; experiment: Cytotoxicity against human CCRF-CEM cells assessed as cellular growth at 10 uM by SRB assay
[7] = tested on: M14; experiment: Cytotoxicity against human M14 cells assessed as cellular growth at 10 uM by SRB assay
[8] = tested on: A498; experiment: Cytotoxicity against human A498 cells assessed as cellular growth at 10 uM by SRB assay
[9] = tested on: UO-31; experiment: Cytotoxicity against human UO31 cells assessed as cellular growth at 10 uM by SRB assay
[10] = tested on: RPMI-8226; experiment: Cytotoxicity against human RPMI8226 cells assessed as cellular growth at 10 uM by SRB assay
[11] = tested on: NCI-H522; experiment: Cytotoxicity against human NCI-H522 cells assessed as cellular growth at 10 uM by SRB assay
[12] = tested on: DU-145; experiment: Cytotoxicity against human DU145 cells assessed as cellular growth at 10 uM by SRB assay
[13] = tested on: SN12C; experiment: Cytotoxicity against human SN12C cells assessed as cellular growth at 10 uM by SRB assay
[14] = tested on: TK-10; experiment: Cytotoxicity against human TK10 cells assessed as cellular growth at 10 uM by SRB assay
[15] = tested on: T47D; experiment: Cytotoxicity against human T47D cells assessed as cellular growth at 10 uM by SRB assay
[16] = tested on: MDA-MB-435; experiment: Cytotoxicity against human MDA-MB-435 cells assessed as cellular growth at 10 uM by SRB assay
[17] = Cytotoxicity against human NCI-ADR-RES cells assessed as cellular growth at 10 uM by SRB assay
[18] = tested on: EKVX; experiment: Cytotoxicity against human EKVX cells assessed as cellular growth at 10 uM by SRB assay
[19] = tested on: PC-3; experiment: Cytotoxicity against human PC3 cells assessed as cellular growth at 10 uM by SRB assay
[20] = tested on: SNB-19; experiment: Cytotoxicity against human SNB19 cells assessed as cellular growth at 10 uM by SRB assay
[21] = tested on: NCI-H23; experiment: Cytotoxicity against human NCI-H23 cells assessed as cellular growth at 10 uM by SRB assay
[22] = tested on: COLO 205; experiment: Cytotoxicity against human COLO205 cells assessed as cellular growth at 10 uM by SRB assay
[23] = tested on: MCF7; experiment: Cytotoxicity against human MCF7 cells assessed as cellular growth at 10 uM by SRB assay
[24] = tested on: U-251; experiment: Cytotoxicity against human U251 cells assessed as cellular growth at 10 uM by SRB assay
[25] = tested on: HCT-116; experiment: Cytotoxicity against human HCT116 cells assessed as cellular growth at 10 uM by SRB assay
[26] = tested on: SF-295; experiment: Cytotoxicity against human SF295 cells assessed as cellular growth at 10 uM by SRB assay
[27] = tested on: MDA-MB-468; experiment: Cytotoxicity against human MDA-MB-468 cells assessed as cellular growth at 10 uM by SRB assay
[28] = tested on: A549; experiment: Cytotoxicity against human A549 cells assessed as cellular growth at 10 uM by SRB assay
[29] = tested on: K562; experiment: Cytotoxicity against human K562 cells assessed as cellular growth at 10 uM by SRB assay
[30] = tested on: SF-268; experiment: Cytotoxicity against human SF268 cells assessed as cellular growth at 10 uM by SRB assay
[31] = tested on: RXF 393; experiment: Cytotoxicity against human RXF393 cells assessed as cellular growth at 10 uM by SRB assay
[32] = tested on: BT-549; experiment: Cytotoxicity against human BT549 cells assessed as cellular growth at 10 uM by SRB assay
[33] = tested on: SK-MEL-28; experiment: Cytotoxicity against human SK-MEL-28 cells assessed as cellular growth at 10 uM by SRB assay
[34] = tested on: SNB-75; experiment: Cytotoxicity against human SNB75 cells assessed as cellular growth at 10 uM by SRB assay
[35] = tested on: HOP-62; experiment: Cytotoxicity against human HOP62 cells assessed as cellular growth at 10 uM by SRB assay
[36] = tested on: Hs-578T; experiment: Cytotoxicity against human Hs578T cells assessed as cellular growth at 10 uM by SRB assay
[37] = tested on: HCT-15; experiment: Cytotoxicity against human HCT15 cells assessed as cellular growth at 10 uM by SRB assay
[38] = tested on: UACC-62; experiment: Cytotoxicity against human UACC62 cells assessed as cellular growth at 10 uM by SRB assay
[39] = tested on: NCI-H322M; experiment: Cytotoxicity against human NCI-H322M cells assessed as cellular growth at 10 uM by SRB assay
[40] = tested on: SF-539; experiment: Cytotoxicity against human SF539 cells assessed as cellular growth at 10 uM by SRB assay
[41] = tested on: KM12; experiment: Cytotoxicity against human KM12 cells assessed as cellular growth at 10 uM by SRB assay
[42] = tested on: ACHN; experiment: Cytotoxicity against human ACHN cells assessed as cellular growth at 10 uM by SRB assay
[43] = tested on: CAKI-1; experiment: Cytotoxicity against human Caki1 cells assessed as cellular growth at 10 uM by SRB assay
[44] = tested on: SK-MEL-5; experiment: Cytotoxicity against human SK-MEL-5 cells assessed as cellular growth at 10 uM by SRB assay
[45] = tested on: LOX IMVI; experiment: Cytotoxicity against human LOXIMVI cells assessed as cellular growth at 10 uM by SRB assay
[46] = tested on: OVCAR-3; experiment: Cytotoxicity against human OVCAR3 cells assessed as cellular growth at 10 uM by SRB assay
[47] = tested on: SK-OV-3; experiment: Cytotoxicity against human SKOV3 cells assessed as cellular growth at 10 uM by SRB assay
[48] = tested on: NCI-H460; experiment: Cytotoxicity against human NCI-H460 cells assessed as cellular growth at 10 uM by SRB assay
[49] = tested on: OVCAR-8; experiment: Cytotoxicity against human OVCAR8 cells assessed as cellular growth at 10 uM by SRB assay
[50] = tested on: Malme-3M; experiment: Cytotoxicity against human MALME-3M cells assessed as cellular growth at 10 uM by SRB assay
[51] = tested on: 786-0; experiment: Cytotoxicity against human 786-0 cells assessed as cellular growth at 10 uM by SRB assay
[52] = tested on: NCI-H226; experiment: Cytotoxicity against human NCI-H226 cells assessed as cellular growth at 10 uM by SRB assay
[53] = tested on: MOLT-4; experiment: Cytotoxicity against human MOLT4 cells assessed as cellular growth at 10 uM by SRB assay
[54] = tested on: HT-29; experiment: Cytotoxicity against human HT-29 cells assessed as cellular growth at 10 uM by SRB assay
[55] = tested on: MDA-MB-231; experiment: Cytotoxicity against human MDA-MB-231 cells assessed as cellular growth at 10 uM by SRB assay
[56] = tested on: HL-60(TB); experiment: Cytotoxicity against human HL-60(TB) cells assessed as cellular growth at 10 uM by SRB assay
[57] = tested on: SR; experiment: Cytotoxicity against human SR cells assessed as cellular growth at 10 uM by SRB assay

Clc1ccc(-c2nc(-c3cccs3)no2)c(Cl)c1
Activity [1]: 66.03% | Activity [2]: 122.72% | Activity [3]: 88.07% | Activity [4]: 66.78% | Activity [5]: 76.15% | Activity [6]: 85.99% | Activity [7]: 100.46% | Activity [8]: 110.86% | Activity [9]: 70.88% | Activity [10]: 86.03% | Activity [11]: 91.42% | Activity [12]: 99.3% | Activity [13]: 100.86% | Activity [14]: 71.42% | Activity [15]: 51.7% | Activity [16]: 110.83% | Activity [17]: 102.9% | Activity [18]: 72.63% | Activity [19]: 83.22% | Activity [20]: 104.48% | Activity [21]: 92.64% | Activity [22]: 106.21% | Activity [23]: 29.22% | Activity [24]: 90.09% | Activity [25]: 94.56% | Activity [26]: 107.44% | Activity [27]: 8.37% | Activity [28]: 91.44% | Activity [29]: 96.15% | Activity [30]: 99.25% | Activity [31]: 107.35% | Activity [32]: 83.02% | Activity [33]: 103.74% | Activity [34]: 63.47% | Activity [35]: 84.92% | Activity [36]: 96.13% | Activity [37]: 73.54% | Activity [38]: 88.98% | Activity [39]: 120.06% | Activity [40]: 107.53% | Activity [41]: 99.27% | Activity [42]: 99.79% | Activity [43]: 81.96% | Activity [44]: 83.92% | Activity [45]: 103.49% | Activity [46]: 99.18% | Activity [47]: 93.87% | Activity [48]: 92.07% | Activity [49]: 97.12% | Activity [50]: 102.62% | Activity [51]: 97.42% | Activity [52]: 88.68%

CC1(C)CC(=O)c2cc3c(N)c(C(=O)Nc4ccc(Cl)cc4)sc3nc2C1
Activity [1]: 116.11% | Activity [2]: 100.96% | Activity [3]: 108.54% | Activity [4]: 110.85% | Activity [5]: 91.35% | Activity [6]: 97.21% | Activity [7]: 107.38% | Activity [8]: 75.63% | Activity [9]: 108.83% | Activity [10]: 102.77% | Activity [11]: 95.83% | Activity [12]: 103.07% | Activity [13]: 109.62% | Activity [14]: 95.21% | Activity [15]: 96.17% | Activity [16]: 108.85% | Activity [17]: 113.97% | Activity [53]: 104% | Activity [18]: 93.17% | Activity [19]: 104.63% | Activity [20]: 113.58% | Activity [21]: 104.98% | Activity [22]: 116.82% | Activity [23]: 102.6% | Activity [24]: 103.14% | Activity [25]: 108.43% | Activity [26]: 100.12% | Activity [27]: 109.5% | Activity [28]: 97.61% | Activity [29]: 107.2% | Activity [30]: 124.88% | Activity [31]: 116.26% | Activity [32]: 124.84% | Activity [54]: 96.43% | Activity [33]: 118.07% | Activity [55]: 114.95% | Activity [34]: 113.88% | Activity [35]: 108.35% | Activity [36]: 108.83% | Activity [37]: 107.55% | Activity [38]: 105.25% | Activity [39]: 113.55% | Activity [40]: 114.18% | Activity [41]: 116.67% | Activity [42]: 116.88% | Activity [43]: 134.14% | Activity [44]: 96.03% | Activity [45]: 108.76% | Activity [46]: 111.21% | Activity [47]: 106.15% | Activity [48]: 108.61% | Activity [49]: 110.67% | Activity [50]: 119.36% | Activity [56]: 107.32% | Activity [51]: 98.68% | Activity [52]: 108.39% | Activity [57]: 112.84%
